Here are results for 14 compounds from patent US20230416258A1, “BENZ[…], AND PREPARATION METHOD THEREFOR AND USE THEREOF” (CHINA PHARMACEUTICAL UNIVERSITY, priority 2020, published 2023).

For orientation: EC50 means the concentration that produces a half-maximal response.

The subject of one series is KM mice. The series is described as follows: Test for drug-induced disappearance of righting reflex in mice. It is filed as in vivo. The note with it: single rapid bolus via tail vein. The method in brief: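 Female KM mice (18–25 g), randomly grouped, given a single rapid bolus via tail vein. Latency (administration to loss of righting reflex) and duration (loss to recovery) recorded.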

Series [1] deals with SD rats. The series is described as follows: Test for drug-induced disappearance of righting reflex in rats. In kind it is in vivo. The note with it: single rapid bolus via tail vein. An excerpt:
In anesthetic drug experiments, latency generally refers to the time from the start of administration to the loss of consciousness of the subject. The shorter latency is preferred, indicating a rapid onset of action after administration. The duration of anesthesia generally refers to the duration of time from the loss of consciousness to the restoration of consciousness of the subject. The duration of the drug will vary from animal model to animal species. Too long anesthesia may produce adverse cardiovascular and respiratory responses, such as adverse neurological effects to the subject, including sleepiness and dizziness; meanwhile, too short duration of anesthesia may affect the anesthesia effect, causing problems such as increase of anesthesia dosage during the operation.
SD rats (male, 200-280 g) were randomly grouped and subjected to a single administration by rapid bolus via the tail vein. The latency and duration of righting reflex in the rats were recorded.

Series [2] concerns SD rats. The series is described as follows: Induction of anesthesia in rats by continuous infusion of drug for 20 min. In kind it is in vivo. Conditions: initial dose 20 mg/kg bolus, maintenance dose 0.2 (mg/kg)/min for 20 min, after infusion completed. On the procedure:
SD rats (male, 200-280 g) were randomly grouped and subjected to administration of an initial dose by rapid bolus via the tail vein, followed by a continuous infusion with a maintenance dose for 20 min.
After the infusion was completed, the duration of the righting reflex and the time from wake-up to recovery in rats were recorded.

The subject of series [3] is GABA-activated Cl− current (GABAA receptor) in HEK 293T cells. The series is described as follows: Effect of drugs on GABA-activated current in cells by cell patch clamp. In kind it is cell-based. Conditions: for EC50: read-out: Positive enhancement EC50 (μM) for 2 μM GABA-induced current, −60 mV; for Enhancement percentage Emax for 2 μM GABA current (within 3-30 μM): −60 mV, corresponding concentration 20 μM. On the procedure: Test compounds were dissolved at various concentrations in an extracellular buffer (140 mM NaCl, 4.7 mM KCl, 10 mM HEPES, 2 mM CaCl2), 10 mM glucose, 1 mM MgCl2, pH 7.4). HEK 293T cells were seeded on glass coverslips and cultured in DMEM media at 37° C. with 5% CO2 for 24 h. GABA Cl^− current was subjected to whole cell recording using an HEKA EPC 10USB patch clamp amplifier. 2 μM GABA was used for exciting Cl^− current, with the membrane potential clamped at −60 mV. The cells were treated with the test compound and 2 μM GABA simultaneously, and the induction effect on and Emax of Cl^− current in the same cell were recorded.
Maximum enhancement percentage Emax for 2 μM GABA current and corresponding concentration (μM): 100% for normal humans. The greater the percentage, the lower the corresponding concentration, and the greater the depth of anesthesia.

Another series relates to hCMEC/D3 cells. The series is described as follows: Rate of drug passing through in vitro blood-brain barrier (Transwell). Conditions: hCMEC/D3 monolayer, compound 0.1 mg/mL. In kind it is in vitro ADME. On the procedure:
A Transwell device (pore size: 5.0 μm) was placed in a 24-well cell culture well; then hCMEC/D3 cells at 1×10^5 cells/mL were transferred to the upper microwells of Transwell at 150 μL/well, and cell culture medium was added to the lower microwells. After the bottom was covered by a single layer of the cells, the medium in the wells was replaced with EBM-2 complete medium containing 1% FBS, and the cells were cultured in a CO2 incubator for 10 days until a fully dense single layer of the cells was formed. When a fully dense single layer of the cells was formed, the compound at 0.1 mg/mL was added to the lower medium, and after 5 min, the concentration of the compound in the upper medium was measured to calculate the permeability:
Pcompound%=Cupper compound/Clower compound×100%

In the series on KM mice (30 mg/kg), `COC(=O)CC[C@@H]1N=C(c2ccccc2F)c2cc(Cl)ccc2-n2c(S)nnc21` [Compound 1, methyl (S)-3-(8-chloro-6-(2-fluorophenyl)-1-mercapto-4H-benzo[f][1,2,4]triazolo[4,3-a][1,4]diazepin-4-yl)propionate] returned a Duration of 3.51 min and a Latency of 0.26 min. The compound also returned a Latency with SD rats [1] of 0.25 min. In the series on SD rats [2], the Duration of anesthesia amounted to 2.82 min and the “Time from wake-up to recovery” value amounted to 11.2 min. Moreover, in series [3], the EC50 worked out at 0.85 µM and the “Enhancement percentage Emax for 2 μM GABA current (within 3-30 μM)” value (“Enhancement percentage Emax” for short) is listed as 216% (20 μM). Besides, the “In vitro blood-brain barrier, compound permeability at 5 min” value (from here on “In vitro blood-brain barrier”) with hCMEC/D3 cells is recorded as 72.2%.

Turning to `COC(=O)CC[C@@H]1N=C(c2ccccc2F)c2cc([N+](=O)[O-])ccc2-n2c(SC)nnc21` [Compound 10, methyl (S)-3-(8-nitro-6-(2-fluorophenyl)-1-(methylthio)-4H-benzo[f][1,2,4]triazolo[4,3-a][1,4]diazepin-4-yl)propionate], in the series on KM mice (30 mg/kg), the Duration worked out at 3.15 min and the Latency worked out at 0.76 min. In the series on SD rats [1], this compound yielded a Latency of 0.32 min. Also, in the series on SD rats [2], the Duration of anesthesia turned out to be 5.35 min and the “Time from wake-up to recovery” value amounted to 13.6 min. Further, in series [3], the EC50 amounted to 0.67 µM and the “Enhancement percentage Emax” value is reported as 202% (20 μM). Moreover, the “In vitro blood-brain barrier” value with hCMEC/D3 cells came to 58.7%.

In the series on KM mice (30 mg/kg), `CCSc1nnc2n1-c1ccc([N+](=O)[O-])cc1C(c1ccccc1F)=N[C@H]2CCC(=O)OC` [Compound 13, methyl (S)-3-(8-nitro-6-(2-fluorophenyl)-1-(ethylthio)-4H-benzo[f][1,2,4]triazolo[4,3-a][1,4]diazepin-4-yl)propionate] returned a Duration of 2.87 min and a Latency of 0.23 min. In the series with SD rats [1], the Latency is listed as 0.58 min. In addition, in the series with SD rats [2], the Duration of anesthesia worked out at 5.22 min and the “Time from wake-up to recovery” value amounted to 11.4 min. Moreover, in series [3], the EC50 was found to be 0.58 µM and the “Enhancement percentage Emax” value was 246% (20 μM). The “In vitro blood-brain barrier” value in the series with hCMEC/D3 cells was determined as 81.6%.

For `COC(=O)CC[C@@H]1N=C(c2ccccc2Cl)c2cc(Cl)ccc2-n2c(SC)nnc21` [Compound 23, methyl (S)-3-(8-chloro-6-(2-chlorophenyl)-1-(methylthio)-4H-benzo[f][1,2,4]triazolo[4,3-a][1,4]diazepin-4-yl)propionate], in the series on KM mice (60 mg/kg), the Duration amounted to 8.46 min and the Latency is 0.25 min. In the series on KM mice (100 mg/kg), this compound registered a Duration of 14.6 min and a Latency of 0.16 min. For the same compound, the Latency with SD rats [1] came out at 0.36 min. Moreover, in the series with SD rats [2], the Duration of anesthesia is 7.22 min and the “Time from wake-up to recovery” value is listed as 13.2 min. Besides, in series [3], the EC50 is 0.52 µM and the “Enhancement percentage Emax” value was 278% (20 μM). Also, in the series on hCMEC/D3 cells, the “In vitro blood-brain barrier” value is listed as 65.3%.

In the series on KM mice (60 mg/kg), `COC(=O)CC[C@@H]1N=C(c2ccccc2Cl)c2cc(Br)ccc2-n2c(SC)nnc21` [Compound 24, methyl (S)-3-(8-bromo-6-(2-chlorophenyl)-1-(methylthio)-4H-benzo[f][1,2,4]triazolo[4,3-a][1,4]diazepin-4-yl)propionate] registered a Duration of 6.83 min and a Latency of 0.24 min. The compound also displayed a Latency with SD rats [1] of 0.28 min. For the same compound, in the series on SD rats [2], the Duration of anesthesia came to 15.6 min and the “Time from wake-up to recovery” value was determined as 22.3 min. Further, in series [3], the EC50 was found to be 0.48 µM and the “Enhancement percentage Emax” value is 282% (20 μM). Also, the “In vitro blood-brain barrier” value in the series with hCMEC/D3 cells is given as 73.4%.

With `CCN(C)C(=O)Sc1nnc2n1-c1ccc(Cl)cc1C(c1ccccc1Cl)=N[C@H]2CCC(=O)OC` [Compound 142, methyl (S)-3-(8-chloro-6-(2-chlorophenyl)-1-((ethyl(methyl)carbamoyl)thio)-4H-benzo[f][1,2,4]triazolo[4,3-a][1,4]diazepin-4-yl)propionate], in the series with KM mice (30 mg/kg), the Duration is recorded as 10.35 min and the Latency stood at 0.21 min.

On to `COC(=O)CC[C@@H]1N=C(c2ccccc2Cl)c2cc(Cl)ccc2-n2c(SCCC(=O)N(C)C)nnc21` [Compound 143, methyl (S)-3-(8-chloro-6-(2-chlorophenyl)-1-(3-((dimethylamino)-3-oxopropyl)thio)-4H-benzo[f][1,2,4]triazolo[4,3-a][1,4]diazepin-4-yl)propionate], for which, in the series with KM mice (30 mg/kg), the Duration amounted to 9.62 min and the Latency stood at 0.64 min.

In the series on KM mice (30 mg/kg), `COC(=O)CC[C@@H]1N=C(c2ccccc2Cl)c2cc(Cl)ccc2-n2c(SCC3=NCCN3)nnc21` [Compound 144, methyl (S)-3-(8-chloro-6-(2-chlorophenyl)-1-(((4,5-dihydro-1H-imidazol-2-yl)methyl)thio)-4H-benzo[f][1,2,4]triazolo[4,3-a][1,4]diazepin-4-yl)propionate] came in with a Duration of 5.32 min and a Latency of 0.45 min.

Consider `COC(=O)CC[C@@H]1N=C(c2ccccc2Cl)c2cc(Cl)ccc2-n2c1n[nH]c2=S` [Tautomer of compound 2, methyl (S)-3-(8-chloro-6-(2-chlorophenyl)-1-thio-2,4-dihydro-1H-benzo[f][1,2,4]triazolo[4,3-a][1,4]diazepin-4-yl)propionate], for which, in the series on KM mice (30 mg/kg), the Duration turned out to be 10.35 min and the Latency was 1.10 min.

In the case of `COC(=O)CC[C@@H]1N=C(c2ccccn2)c2cc(Br)ccc2-n2c1n[nH]c2=S` [Tautomer of compound 3, methyl (S)-3-(8-bromo-6-(pyridin-2-yl)-1-thio-2,4-dihydro-1H-benzo[f][1,2,4]triazolo[4,3-a][1,4]diazepin-4-yl)propionate], in the series on KM mice (30 mg/kg), the Duration stood at 8.27 min and the Latency came to 0.65 min.

On to `COC(=O)CC[C@@H]1N=C(c2ccccc2)c2ccccc2-n2c1n[nH]c2=S` [Tautomer of compound 5, methyl (S)-3-(6-phenyl-1-thio-2,4-dihydro-1H-benzo[f][1,2,4]triazolo[4,3-a][1,4]diazepin-4-yl)propionate], for which, in the series on KM mice (30 mg/kg), the Duration is given as 7.82 min and the Latency was 0.73 min.

In the series with KM mice (30 mg/kg), `COC(=O)CC[C@@H]1N=C(c2ccc(F)cc2)c2ccccc2-n2c1n[nH]c2=S` [Tautomer of compound 6, methyl (S)-3-(6-(4-fluorophenyl)-1-thio-2,4-dihydro-1H-benzo[f][1,2,4]triazolo[4,3-a][1,4]diazepin-4-yl)propionate] returned a Duration of 8.84 min and a Latency of 0.73 min.

`COC(=O)CC[C@@H]1N=C(c2ccccc2)c2cc(Cl)ccc2-n2c1n[nH]c2=S` [Tautomer of compound 7, methyl (S)-3-(8-chloro-6-phenyl-1-thio-2,4-dihydro-1H-benzo[f][1,2,4]triazolo[4,3-a][1,4]diazepin-4-yl)propionate]: in the series on KM mice (30 mg/kg), the Duration amounted to 9.22 min and the Latency is on record as 0.95 min.

In the series with KM mice (30 mg/kg), “methyl (S)-3-(8-chloro-6-(2-chlorophenyl)-1-(2-((4-methylpiperidin-2-carbonyl)ethyl)thio)-4H-benzo[f][1,2,4]triazolo[4,3-a][1,4]diazepin-4-yl)propionate [Compound 136]” gave a Duration of 17.5 min and a Latency of 0.36 min.
